How the values were obtained:
Assay in all cases: relative viability (nuclei count vs DMSO), 5 days (fraction); higher = more cells survive
[1] = test system: EMC-BAC-2
Procedure, shortened: (§1)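 Nuclei were stained with Hoechst during a one-step fixation (final 0.05% Triton X-100, 1% formaldehyde, 1 ug/ml Hoechst) carried out 5 days after dosing, then counted on 4× images. The cells, lung cancer lines in 1536-well plates, had been dosed by pin tool the day after seeding with one drug alone or a fixed anchor-drug dose plus five library-drug doses (not always all listed) in √10 steps. Relative viability is the nuclei count in treated wells divided by that in vehicle wells, and each value is the median of duplicate plates.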

[2] = test system: EPLC-272H
Procedure, shortened: as §1

[3] = test system: H3255
Procedure, shortened: as §1

[4] = test system: HCC-44
Procedure, shortened: as §1

[5] = test system: HCC-827
Procedure, shortened: as §1

[6] = test system: LCLC-97TM1
Procedure, shortened: as §1

[7] = test system: NCI-H1355
Procedure, shortened: as §1

[8] = test system: NCI-H1395
Procedure, shortened: as §1

[9] = test system: NCI-H1563
Procedure, shortened: as §1

[10] = test system: NCI-H1651
Procedure, shortened: as §1

[11] = test system: NCI-H1793
Procedure, shortened: as §1

[12] = test system: NCI-H1944
Procedure, shortened: as §1

[13] = test system: NCI-H2023
Procedure, shortened: as §1

[14] = test system: NCI-H2085
Procedure, shortened: as §1

[15] = test system: NCI-H2087
Procedure, shortened: as §1

[16] = test system: NCI-H2405
Procedure, shortened: as §1

[17] = test system: NCI-H322M
Procedure, shortened: as §1

[18] = test system: NCI-H520
Procedure, shortened: as §1

[19] = test system: NCI-H650
Procedure, shortened: as §1

[20] = test system: SK-MES-1
Procedure, shortened: as §1

[21] = test system: UMC-11
Procedure, shortened: as §1

Compound `CC1(C)CCC(c2ccc(Cl)cc2)=C(CN2CCN(c3ccc(C(=O)NS(=O)(=O)c4ccc(N[C@H](CCN5CCOCC5)CSc5ccccc5)c(S(=O)(=O)C(F)(F)F)c4)cc3)CC2)C1` [Navitoclax] + CS(=O)(=O)CCNCc1ccc(-c2ccc3ncnc(Nc4ccc(OCc5cccc(F)c5)c(Cl)c4)c3c2)o1 [Lapatinib] (partner 2 µM) has a relative viability ([1]; first compound 0.005 µM) of 0.895, a relative viability ([1]; first compound 0.01581 µM) of 0.893 and a relative viability ([1]; first compound 0.05 µM) of 0.884. It also gave a relative viability ([1]; first compound 0.1581 µM) of 0.963, a relative viability ([1]; first compound 0.5 µM) of 0.943 and a relative viability ([2]; first compound 0.005 µM) of 0.904. For the same compound, the relative viability ([2]; first compound 0.1581 µM) was 0.906, the relative viability ([2]; first compound 0.5 µM) was 0.881 and the relative viability ([3]; first compound 0.005 µM) was 0.271. The relative viability ([3]; first compound 0.01581 µM) was 0.258, the relative viability ([3]; first compound 0.05 µM) was 0.226 and the relative viability ([3]; first compound 0.1581 µM) was 0.25. The relative viability ([3]; first compound 0.5 µM) was 0.19, the relative viability ([4]; first compound 0.005 µM) was 0.888 and the relative viability ([4]; first compound 0.01581 µM) was 1.03. The relative viability ([4]; first compound 0.05 µM) was 0.996, the relative viability ([4]; first compound 0.1581 µM) was 0.971 and the relative viability ([4]; first compound 0.5 µM) was 1.04. The relative viability ([5]; first compound 0.005 µM) was 0.199, the relative viability ([5]; first compound 0.01581 µM) was 0.2 and the relative viability ([5]; first compound 0.05 µM) was 0.194. For the same compound, the relative viability ([5]; first compound 0.1581 µM) was 0.21, the relative viability ([5]; first compound 0.5 µM) was 0.196 and the relative viability ([6]; first compound 0.005 µM) was 0.884. It also gave a relative viability ([6]; first compound 0.01581 µM) of 1.21, a relative viability ([6]; first compound 0.05 µM) of 0.865 and a relative viability ([6]; first compound 0.1581 µM) of 0.856. The relative viability ([6]; first compound 0.5 µM) was 1.17, the relative viability ([7]; first compound 0.005 µM) was 0.988 and the relative viability ([7]; first compound 0.01581 µM) was 0.956. It also gave a relative viability ([7]; first compound 0.05 µM) of 1.03, a relative viability ([7]; first compound 0.1581 µM) of 1.05 and a relative viability ([7]; first compound 0.5 µM) of 1.02. For the same compound, the relative viability ([8]; first compound 0.005 µM) was 0.831, the relative viability ([8]; first compound 0.01581 µM) was 1.18 and the relative viability ([8]; first compound 0.05 µM) was 1.13. For the same compound, the relative viability ([8]; first compound 0.1581 µM) was 1.17, the relative viability ([8]; first compound 0.5 µM) was 1.06 and the relative viability ([9]; first compound 0.005 µM) was 1.08. The relative viability ([9]; first compound 0.01581 µM) was 1.23, the relative viability ([9]; first compound 0.05 µM) was 0.877 and the relative viability ([9]; first compound 0.1581 µM) was 1.05. The relative viability ([9]; first compound 0.5 µM) was 1.44, the relative viability ([10]; first compound 0.005 µM) was 0.767 and the relative viability ([10]; first compound 0.01581 µM) was 0.984. For the same compound, the relative viability ([10]; first compound 0.1581 µM) was 0.803, the relative viability ([10]; first compound 0.5 µM) was 0.837 and the relative viability ([11]; first compound 0.005 µM) was 0.601. The relative viability ([11]; first compound 0.01581 µM) was 0.779, the relative viability ([11]; first compound 0.05 µM) was 0.467 and the relative viability ([11]; first compound 0.1581 µM) was 0.843. For the same compound, the relative viability ([11]; first compound 0.5 µM) was 0.557, the relative viability ([12]; first compound 0.005 µM) was 0.869 and the relative viability ([12]; first compound 0.01581 µM) was 0.871. The relative viability ([12]; first compound 0.05 µM) was 0.629, the relative viability ([12]; first compound 0.1581 µM) was 0.788 and the relative viability ([12]; first compound 0.5 µM) was 0.833. The relative viability ([13]; first compound 0.005 µM) was 0.953, the relative viability ([13]; first compound 0.01581 µM) was 1.13 and the relative viability ([13]; first compound 0.05 µM) was 0.685. For the same compound, the relative viability ([13]; first compound 0.1581 µM) was 0.927, the relative viability ([13]; first compound 0.5 µM) was 0.816 and the relative viability ([14]; first compound 0.005 µM) was 0.754. The relative viability ([14]; first compound 0.01581 µM) was 0.895, the relative viability ([14]; first compound 0.05 µM) was 0.692 and the relative viability ([14]; first compound 0.1581 µM) was 0.822. The relative viability ([14]; first compound 0.5 µM) was 0.814, the relative viability ([15]; first compound 0.005 µM) was 1.15 and the relative viability ([15]; first compound 0.01581 µM) was 1.06. It also gave a relative viability ([15]; first compound 0.05 µM) of 0.837, a relative viability ([15]; first compound 0.1581 µM) of 0.925 and a relative viability ([15]; first compound 0.5 µM) of 1.02. For the same compound, the relative viability ([16]; first compound 0.005 µM) was 1.03, the relative viability ([16]; first compound 0.01581 µM) was 1.29 and the relative viability ([16]; first compound 0.05 µM) was 1.19. For the same compound, the relative viability ([16]; first compound 0.1581 µM) was 1.02, the relative viability ([16]; first compound 0.5 µM) was 0.927 and the relative viability ([17]; first compound 0.005 µM) was 0.672. The relative viability ([17]; first compound 0.01581 µM) was 0.603, the relative viability ([17]; first compound 0.05 µM) was 0.625 and the relative viability ([17]; first compound 0.1581 µM) was 0.535. For the same compound, the relative viability ([17]; first compound 0.5 µM) was 0.576, the relative viability ([18]; first compound 0.005 µM) was 0.855 and the relative viability ([18]; first compound 0.01581 µM) was 0.965. It also gave a relative viability ([18]; first compound 0.05 µM) of 0.967, a relative viability ([18]; first compound 0.1581 µM) of 0.763 and a relative viability ([18]; first compound 0.5 µM) of 0.758. For the same compound, the relative viability ([19]; first compound 0.005 µM) was 0.709, the relative viability ([19]; first compound 0.01581 µM) was 0.977 and the relative viability ([19]; first compound 0.05 µM) was 1.07. It also gave a relative viability ([19]; first compound 0.1581 µM) of 0.894, a relative viability ([19]; first compound 0.5 µM) of 0.881 and a relative viability ([20]; first compound 0.005 µM) of 0.462. For the same compound, the relative viability ([20]; first compound 0.01581 µM) was 0.552, the relative viability ([20]; first compound 0.05 µM) was 0.497 and the relative viability ([20]; first compound 0.1581 µM) was 0.458. It also gave a relative viability ([20]; first compound 0.5 µM) of 0.523, a relative viability ([21]; first compound 0.005 µM) of 0.862 and a relative viability ([21]; first compound 0.01581 µM) of 1.02. For the same compound, the relative viability ([21]; first compound 0.05 µM) was 0.747, the relative viability ([21]; first compound 0.1581 µM) was 0.858 and the relative viability ([21]; first compound 0.5 µM) was 0.481.

— the supplement of paper PMC10307832
